Assay results reported in US7807720B2 (priority 2007, dated 2010).

Target: Bacillus anthracis lethal factor protease (Bacillus anthracis, UniProt P15917)
Assay: biochemical

Chain of Bacillus anthracis lethal factor protease (P15917 34-809 limits assumed): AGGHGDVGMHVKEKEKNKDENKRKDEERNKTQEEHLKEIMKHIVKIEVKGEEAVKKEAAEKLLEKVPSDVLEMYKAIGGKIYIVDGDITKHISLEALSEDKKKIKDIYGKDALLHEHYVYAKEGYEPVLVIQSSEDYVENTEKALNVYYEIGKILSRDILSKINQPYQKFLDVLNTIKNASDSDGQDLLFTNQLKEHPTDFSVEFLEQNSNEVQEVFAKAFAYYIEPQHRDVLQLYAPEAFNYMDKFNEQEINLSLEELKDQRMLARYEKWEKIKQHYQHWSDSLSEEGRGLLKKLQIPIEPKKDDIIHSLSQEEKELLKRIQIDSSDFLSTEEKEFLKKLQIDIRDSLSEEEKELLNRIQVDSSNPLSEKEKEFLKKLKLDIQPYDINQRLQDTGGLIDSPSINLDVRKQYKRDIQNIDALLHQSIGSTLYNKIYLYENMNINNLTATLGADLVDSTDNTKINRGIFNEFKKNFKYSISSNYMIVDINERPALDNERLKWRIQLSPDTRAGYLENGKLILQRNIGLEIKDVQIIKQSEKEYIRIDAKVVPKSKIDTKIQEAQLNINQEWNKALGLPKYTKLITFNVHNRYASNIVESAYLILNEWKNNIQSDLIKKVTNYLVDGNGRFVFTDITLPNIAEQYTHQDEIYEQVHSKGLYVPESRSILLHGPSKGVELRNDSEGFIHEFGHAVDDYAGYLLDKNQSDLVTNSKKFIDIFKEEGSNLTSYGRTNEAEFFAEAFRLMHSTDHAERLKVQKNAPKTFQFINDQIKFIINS

Row | SMILES | Ki [nM]
1 | Cc1cc(CC(CCN(C)CCCc2ccc(F)cc2)C(=O)NO)cc(C)c1F (stereo in doubt) [Compound 168172, (S)-2-(4-Fluoro-3,5-dimethyl-benzyl)-4-{[3-(4-fluoro-phenyl)-propyl]-methyl-amino}-N-hydroxy-butyramide] | 290
2 | Cc1cc(CNCCCC[C@@H](Cc2cc(C)c(F)c(C)c2)C(=O)NO)ccc1F [Compound 168050, (S)-2-(4-Fluoro-3,5-dimethyl-benzyl)-6-(4-fluoro-3-methyl-benzylamino)-hexanoic acid hydroxyamide] | 74
3 | Cc1cc(CCC(=O)NO)cc(C)c1F [Compound 167857, 3-(4-Fluoro-3,5-dimethyl-phenyl)-N-hydroxy-propionamide] | 1340
4 | Cc1cc(C[C@H](CCCCNCC2CCCCC2)C(=O)NO)cc(C)c1F [Compound 168170, (S)-6-(Cyclohexylmethyl-amino)-2-(4-fluoro-3,5-dimethyl-benzyl)-hexanoic acid hydroxyamide] | 400
5 | Cc1cc(CCCCCC[C@@H](Cc2cc(C)c(F)c(C)c2)C(=O)NO)ccc1F [Compound 168124, (S)-2-(4-Fluoro-3,5-dimethyl-benzyl)-8-(4-fluoro-3-methyl-phenyl)-octanoic acid hydroxyamide] | 10300
6 | Cc1cc(C[C@H](CCCCNCc2ccc(Cl)cc2)C(=O)NO)cc(C)c1F [Compound 168125, (S)-6-(4-Chloro-benzylamino)-2-(4-fluoro-3,5-dimethyl-benzyl)-hexanoic acid hydroxyamide] | 190
7 | CCC(CC)CNCCCC[C@@H](Cc1cc(C)c(F)c(C)c1)C(=O)NO [Compound 168171, (S)-6-(2-Ethyl-butylamino)-2-(4-fluoro-3,5-dimethyl-benzyl)-hexanoic acid hydroxyamide] | 250
8 | CCCCC(Cc1ccc(F)c(C)c1)C(=O)NO (centres unmarked) [Compound 167266, 2-(4-Fluoro-3-methyl-benzyl)-hexanoic acid hydroxyamide] | 2300
9 | Cc1cc(CCCN(C)CC[C@@H](Cc2ccc(Cl)cc2)C(=O)NO)cc(C)c1F [Compound 168156, 2R-(4-Chloro-benzyl)-4-{[3-(4-fluoro-3,5-dimethyl-phenyl)-propyl]-methyl-amino}-N-hydroxy-butyramide] | 3290
10 | Cc1ccc(CNCCCC[C@@H](Cc2cc(C)c(F)c(C)c2)C(=O)NO)o1 [Compound 168157, (S)-2-(4-Fluoro-3,5-dimethyl-benzyl)-6-[(5-methyl-furan-2-ylmethyl)-amino]-hexanoic acid hydroxyamide] | 130
11 | Cc1cc(C[C@H](CCCCN(C)Cc2ccc(F)cc2)C(=O)NO)cc(C)c1F [Compound 168126, (S)-6-[(4-Fluoro-benzyl)-methyl-amino]-2-(4-fluoro-3,5-dimethyl-benzyl)-hexanoic acid hydroxyamide] | 550
12 | CCCC[C@@H](Cc1ccccc1)C(=O)NO (stereo in doubt) [Compound 167550, 2-Benzyl-hexanoic acid hydroxyamide] | 65200
13 | Cc1cc(CC(C(=O)NO)c2ccc(Br)cc2)cc(C)c1F (centres unmarked) [Compound 167856, 2-(4-Bromo-phenyl)-3-(4-fluoro-3,5-dimethyl-phenyl)-N-hydroxy-propionamide] | 620
14 | Cc1cc(C[C@H](CCCCNCc2cccc(-c3ccccc3)c2)C(=O)NO)ccc1F [Compound 168140, (S)-6-[(Biphenyl-3-ylmethyl)-amino]-2-(4-fluoro-3-methyl-benzyl)-hexanoic acid hydroxyamide] | 700
15 | Cc1cc(C[C@H](CCCCNc2ccc(F)cc2)C(=O)NO)cc(C)c1F [Compound 168132, (S)-2-(4-Fluoro-3,5-dimethyl-benzyl)-6-(4-fluoro-phenylamino)-hexanoic acid hydroxyamide] | 2240
16 | Cc1cc(C[C@@H](C(=O)NO)c2ccc(Br)cc2)cc(C)c1F [Compound 168009, (R)-2-(4-Bromo-phenyl)-3-(4-fluoro-3,5-dimethyl-phenyl)-N-hydroxy-propionamide] | 770
17 | Cc1cc(C[C@H](CCCCNCc2cc3ccccc3s2)C(=O)NO)cc(C)c1F [Compound 168180, (S)-6-[(Benzo[b]thiophen-2-ylmethyl)-amino]-2-(4-fluoro-3,5-dimethyl-benzyl)-hexanoic acid hydroxyamide] | 400
18 | Cc1cc(CCCCCC[C@@H](Cc2ccc(Cl)cc2)C(=O)NO)ccc1F [Compound 168134, (S)-2-(4-Chloro-benzyl)-8-(4-fluoro-3-methyl-phenyl)-octanoic acid hydroxyamide] | 64500

Row | SMILES | Ki [nM]
19 | Cc1cc(C[C@H](CCCCNCc2ccc3c(c2)OCO3)C(=O)NO)cc(C)c1F [Compound 168148, (S)-6-[(Benzo[1,3]dioxol-5-ylmethyl)-amino]-2-(4-fluoro-3,5-dimethyl-benzyl)-hexanoic acid hydroxyamide] | 220
20 | Cc1cc(C[C@H](CCCCNCc2cnccn2)C(=O)NO)cc(C)c1F [Compound 168179, (S)-2-(4-Fluoro-3,5-dimethyl-benzyl)-6-[(pyrazin-2-ylmethyl)-amino]-hexanoic acid hydroxyamide] | 710
21 | Cc1cc(C[C@H](CCCCNCCCc2ccc(F)cc2)C(=O)NO)cc(C)c1F [Compound 168123, (S)-2-(4-Fluoro-3,5-dimethyl-benzyl)-6-[3-(4-fluoro-phenyl)-propylamino]-hexanoic acid hydroxyamide] | 47
22 | Cc1cc(C[C@@H](CCCCCC(C)C)C(=O)NO)cc(C)c1F [Compound 168052, (R)-2-(4-Fluoro-3,5-dimethyl-benzyl)-8-methyl-nonanoic acid hydroxyamide] | 300000
23 | Cc1cc(CC(C)C(=O)NO)cc(C)c1F (centres unmarked) [Compound 167858, 2-(4-fluoro-3,5-dimethylbenzyl)-N-hydroxypropanamide] | 400
24 | Cc1cc(C[C@H](CCCCCC(C)C)C(=O)NO)cc(C)c1F [Compound 168031, (S)-2-(4-Fluoro-3,5-dimethyl-benzyl)-8-methyl-nonanoic acid hydroxyamide] | 2660
25 | Cc1cc(C[C@H](CCC/C=C/C(C)C)C(=O)NO)cc(C)c1F [Compound 168023, (S)-2-(4-Fluoro-3,5-dimethyl-benzyl)-8-methyl-non-6-enoic acid hydroxyamide] | 1970
26 | O=C(NO)[C@@H](CCCCNCc1ccc(F)cc1)Cc1ccc(F)c(Cl)c1 [Compound 168164, (S)-2-(3-Chloro-4-fluoro-benzyl)-6-(4-fluoro-benzylamino)-hexanoic acid hydroxyamide] | 200
27 | Cc1cc(C[C@H](CCCCNCCc2ccc(F)cc2)C(=O)NO)cc(C)c1F [Compound 168122, (S)-2-(4-Fluoro-3,5-dimethyl-benzyl)-6-[2-(4-fluoro-phenyl)-ethylamino]-hexanoic acid hydroxyamide] | 65
28 | Cc1cc(CNCCCC[C@@H](Cc2ccc(F)c(C)c2)C(=O)NO)ccc1F [Compound 168139, (S)-2-(4-Fluoro-3-methyl-benzyl)-6-(4-fluoro-3-methyl-benzylamino)-hexanoic acid hydroxyamide] | 280
29 | Cc1cc(C[C@@H](CCC/C=C/C(C)C)C(=O)NO)cc(C)c1F [Compound 168051, (R)-2-(4-Fluoro-3,5-dimethyl-benzyl)-8-methyl-non-6-enoic acid hydroxyamide] | 51600
30 | Cc1cc(COCCCC[C@@H](Cc2cc(C)c(F)c(C)c2)C(=O)NO)ccc1F [Compound 168141, (S)-2-(4-fluoro-3,5-dimethylbenzyl)-6-(4-fluoro-3-methylbenzyloxy)-N-hydroxyhexanamide] | 3600
31 | CCCCC(Cc1cc(C)c(F)c(C)c1)C(=O)NO (centres unmarked) [Compound 167533, 2-(4-Fluoro-3,5-dimethyl-benzyl)-hexanoic acid hydroxyamide] | 1200
32 | Cc1cc(C[C@H](C(=O)NO)c2ccc(Br)cc2)cc(C)c1F [Compound 167973, (S)-2-(4-Bromo-phenyl)-3-(4-fluoro-3,5-dimethyl-phenyl)-N-hydroxy-propionamide] | 5700
33 | Cc1cc(CCCN(C)CC[C@@H](Cc2ccc(Cl)cc2)C(=O)NO)ccc1F [Compound 168150, 2R-(4-Chloro-benzyl)-4-{[3-(4-fluoro-3-methyl-phenyl)-propyl]-methyl-amino}-N-hydroxy-butyramide] | 1750
34 | Cc1cc(C[C@H](CCCCNCc2ccccc2)C(=O)NO)cc(C)c1F [Compound 168149, (S)-6-Benzylamino-2-(4-fluoro-3,5-dimethyl-benzyl)-hexanoic acid hydroxyamide] | 130
35 | Cc1cc(CC(C#N)C(=O)NO)cc(C)c1F (centres unmarked) [Compound 167914, 2-Cyano-3-(4-fluoro-3,5-dimethyl-phenyl)-N-hydroxy-propionamide] | 47500
